Data published in patent publication US12637461B2, “Compounds for the activation of AMPK” (PFIZER INC., priority 2022, dated 2026).
pEC50: −log10 of the molar value.

Biological target: T1, human AMPK α2β2γ3 (Homo sapiens, UniProt O43741+P54646+Q9UGI9)
T1 construct: expressed in transfected cells; host or cells: HEK293AD cells, MaxCyte bulk electroporation
Assay: Primary cellular assay: γ3 associated phospho-Thr172 AMPK detection (custom pAMPK Surefire AlphaLISA) in α2β2γ3 bulk transiently transfected HEK293 cells
Format: cell-based
Details: activation of human AMPK α2β2γ3 (γ3 pThr172 AMPK signal) in transiently transfected HEK293 cells, 20 minutes compound incubation; for Emax: 20 min, geometric mean of the asymptotic max, read-out: Assay GMean Asy. Max (%); for pEC50: geometric mean EC50, read-out: Assay GMean EC50
In short: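 Transiently co-transfected (α2/β2/γ3 plasmids, electroporation) HEK293AD cells, plated 2 days in low-glucose DMEM+10% FBS, treated 20 min with compounds (11-point half-log dilutions). Lysates read by modified AlphaLISA capturing γ3 with pThr172 antibody detection. % effect relative to 30 μM HPE and DMSO; EC50 and Emax from curve fit.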

T1 sequence (P54646 whole entry): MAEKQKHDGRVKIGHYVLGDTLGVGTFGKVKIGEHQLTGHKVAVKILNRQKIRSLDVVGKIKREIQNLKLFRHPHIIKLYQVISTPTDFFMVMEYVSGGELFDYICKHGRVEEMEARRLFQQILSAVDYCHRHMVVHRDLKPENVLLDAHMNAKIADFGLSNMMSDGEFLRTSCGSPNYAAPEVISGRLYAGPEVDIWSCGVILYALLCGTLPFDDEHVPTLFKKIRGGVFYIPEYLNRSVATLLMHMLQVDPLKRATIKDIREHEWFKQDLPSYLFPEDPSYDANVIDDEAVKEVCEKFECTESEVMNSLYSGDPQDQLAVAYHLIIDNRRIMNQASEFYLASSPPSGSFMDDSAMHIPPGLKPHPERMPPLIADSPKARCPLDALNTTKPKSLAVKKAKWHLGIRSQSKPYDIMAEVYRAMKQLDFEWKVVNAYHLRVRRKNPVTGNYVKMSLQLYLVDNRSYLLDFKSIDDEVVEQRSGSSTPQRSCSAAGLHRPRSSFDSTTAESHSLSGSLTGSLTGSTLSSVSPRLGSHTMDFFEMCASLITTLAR
T1 sequence (O43741 whole entry): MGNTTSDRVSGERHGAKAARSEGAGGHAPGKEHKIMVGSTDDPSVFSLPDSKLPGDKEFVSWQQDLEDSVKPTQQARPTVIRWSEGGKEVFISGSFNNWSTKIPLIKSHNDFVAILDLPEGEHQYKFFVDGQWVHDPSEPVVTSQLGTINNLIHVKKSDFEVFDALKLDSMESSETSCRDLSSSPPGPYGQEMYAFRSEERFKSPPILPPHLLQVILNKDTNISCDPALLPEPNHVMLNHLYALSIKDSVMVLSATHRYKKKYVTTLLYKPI
T1 sequence (Q9UGI9 whole entry): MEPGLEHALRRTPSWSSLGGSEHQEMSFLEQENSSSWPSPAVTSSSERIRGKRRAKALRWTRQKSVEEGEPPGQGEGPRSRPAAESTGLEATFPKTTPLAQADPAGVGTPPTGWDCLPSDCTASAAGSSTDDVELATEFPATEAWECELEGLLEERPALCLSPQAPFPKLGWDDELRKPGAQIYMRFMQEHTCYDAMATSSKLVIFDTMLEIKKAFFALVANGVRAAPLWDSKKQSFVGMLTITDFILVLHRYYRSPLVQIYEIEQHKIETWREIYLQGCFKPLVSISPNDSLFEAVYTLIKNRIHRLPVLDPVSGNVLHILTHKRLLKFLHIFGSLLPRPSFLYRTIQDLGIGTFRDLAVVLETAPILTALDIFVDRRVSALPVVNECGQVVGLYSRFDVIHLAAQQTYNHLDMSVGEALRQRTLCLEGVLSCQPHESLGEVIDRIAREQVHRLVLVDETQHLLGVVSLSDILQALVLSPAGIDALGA

**Q.** `C[C@]1(c2cccc(Cl)c2F)CN(c2ccccc2F)C(=O)c2cnc(NC3CN(C(=O)[C@@H]4C[C@@H]4F)C3)c(F)c21` [compound 56, (4R)-4-(3-chloro-2-fluorophenyl)-5-fluoro-6-({1-[(1S,2S)-2-fluorocyclopropane-1-carbonyl]azetidin-3-yl}amino)-2-(2-fluorophenyl)-4-methyl-3,4-dihydro-2,7-naphthyridin-1(2H)-one] was tested. Which Emax did it give?
**A.** 92.9%

**Q.** What about the pEC50 of the same molecule?
**A.** 6.59

**Q.** How did the Emax turn out when `CC(C)(O)C(=O)N1CC(Nc2ncc3c(c2F)[C@@](C)(c2cccc(Cl)c2F)CN(c2ccc(CO)cn2)C3=O)C1` [compound 57, (4R)-4-(3-chloro-2-fluorophenyl)-5-fluoro-6-{[1-(2-hydroxy-2-methylpropanoyl)azetidin-3-yl]amino}-2-[5-(hydroxymethyl)pyridin-2-yl]-4-methyl-3,4-dihydro-2,7-naphthyridin-1(2H)-one] was run?
**A.** 84.9%

**Q.** What about the pEC50 of the same molecule?
**A.** 7.12

**Q.** Which Emax does the source give for `Cn1cncc1C(=O)N1CC(Nc2ncc3c(c2F)[C@@](C)(c2cccc(Cl)c2F)CN(c2ccc(CO)cn2)C3=O)C1` [compound 58, (4R)-4-(3-chloro-2-fluorophenyl)-5-fluoro-2-[5-(hydroxymethyl)pyridin-2-yl]-4-methyl-6-{[1-(1-methyl-1H-imidazole-5-carbonyl)azetidin-3-yl]amino}-3,4-dihydro-2,7-naphthyridin-1(2H)-one] here?
**A.** 74.6%

**Q.** What about the pEC50 of the same molecule?
**A.** 6.95

**Q.** What does the source list for `C[C@]1(c2cccc(Cl)c2F)CN(c2ccc(CO)cn2)C(=O)c2cnc(NC3CN(C(=O)c4ncccn4)C3)c(F)c21` [compound 59, (4R)-4-(3-chloro-2-fluorophenyl)-5-fluoro-2-[5-(hydroxymethyl)pyridin-2-yl]-4-methyl-6-{[1-(pyrimidine-2-carbonyl)azetidin-3-yl]amino}-3,4-dihydro-2,7-naphthyridin-1(2H)-one]?
**A.** Emax: 62.4%; pEC50: 6.80

**Q.** For `Cn1cc(C(=O)N2CC(Nc3ncc4c(c3F)[C@@](C)(c3cccc(Cl)c3F)CN(c3ccc(CO)cn3)C4=O)C2)nn1` [compound 60, (4R)-4-(3-chloro-2-fluorophenyl)-5-fluoro-2-[5-(hydroxymethyl)pyridin-2-yl]-4-methyl-6-{[1-(1-methyl-1H-1,2,3-triazole-4-carbonyl)azetidin-3-yl]amino}-3,4-dihydro-2,7-naphthyridin-1(2H)-one], which Emax is on record?
**A.** 48.6%

**Q.** And the pEC50?
**A.** 7.27

**Q.** Which Emax does the source give for `Cn1cc(F)c(N2C[C@](C)(c3cccc(Cl)c3F)c3c(cnc(NC4CN(C(=O)C(C)(C)O)C4)c3F)C2=O)n1` [compound 61, (4R)-4-(3-chloro-2-fluorophenyl)-5-fluoro-2-(4-fluoro-1-methyl-1H-pyrazol-3-yl)-6-{[1-(2-hydroxy-2-methylpropanoyl)azetidin-3-yl]amino}-4-methyl-3,4-dihydro-2,7-naphthyridin-1(2H)-one] here?
**A.** 100%

**Q.** What about the pEC50 of the same molecule?
**A.** 7.04

**Q.** For `Cn1cc(F)c(N2C[C@](C)(c3cccc(Cl)c3F)c3c(cnc(NC4CN(C(=O)C5(O)CC5)C4)c3F)C2=O)n1` [compound 62, (4R)-4-(3-chloro-2-fluorophenyl)-5-fluoro-2-(4-fluoro-1-methyl-1H-pyrazol-3-yl)-6-{[1-(1-hydroxycyclopropane-1-carbonyl)azetidin-3-yl]amino}-4-methyl-3,4-dihydro-2,7-naphthyridin-1(2H)-one], which Emax is on record?
**A.** 138%

**Q.** What about the pEC50 of the same molecule?
**A.** 7.01

**Q.** `Cn1cc(F)c(N2C[C@](C)(c3cccc(Cl)c3F)c3c(cnc(NC4CN(C(=O)CC(F)(F)F)C4)c3F)C2=O)n1` [compound 63, (4R)-4-(3-chloro-2-fluorophenyl)-5-fluoro-2-(4-fluoro-1-methyl-1H-pyrazol-3-yl)-4-methyl-6-{[1-(3,3,3-trifluoropropanoyl)azetidin-3-yl]amino}-3,4-dihydro-2,7-naphthyridin-1(2H)-one] was tested. Which Emax did it give?
**A.** 90%

**Q.** What about the pEC50 of the same molecule?
**A.** 7.26

**Q.** How did the Emax turn out when `Cn1cc(F)c(N2C[C@](C)(c3cccc(Cl)c3F)c3c(cnc(NC4CN(C(=O)CC(C)(C)O)C4)c3F)C2=O)n1` [compound 64, (4R)-4-(3-chloro-2-fluorophenyl)-5-fluoro-2-(4-fluoro-1-methyl-1H-pyrazol-3-yl)-6-{[1-(3-hydroxy-3-methylbutanoyl)azetidin-3-yl]amino}-4-methyl-3,4-dihydro-2,7-naphthyridin-1(2H)-one] was run?
**A.** 80.4%

**Q.** And the pEC50?
**A.** 6.80

**Q.** What does the source list for `Cn1cc(F)c(N2C[C@](C)(c3cccc(Cl)c3F)c3c(cnc(NC4CN(CC(=O)N5CCCC5)C4)c3F)C2=O)n1` [compound 65, (4R)-4-(3-chloro-2-fluorophenyl)-5-fluoro-2-(4-fluoro-1-methyl-1H-pyrazol-3-yl)-4-methyl-6-({1-[2-oxo-2-(pyrrolidin-1-yl)ethyl]azetidin-3-yl}amino)-3,4-dihydro-2,7-naphthyridin-1(2H)-one]?
**A.** Emax: 83.4%; pEC50: 7.26

**Q.** Which Emax does the source give for `CCN(C)C(=O)CN1CC(Nc2ncc3c(c2F)[C@@](C)(c2cccc(Cl)c2F)CN(c2nn(C)cc2F)C3=O)C1` [compound 66, 2-(3-{[(5R)-5-(3-chloro-2-fluorophenyl)-4-fluoro-7-(4-fluoro-1-methyl-1H-pyrazol-3-yl)-5-methyl-8-oxo-5,6,7,8-tetrahydro-2,7-naphthyridin-3-yl]amino}azetidin-1-yl)-N-ethyl-N-methylacetamide] here?
**A.** 88.8%

**Q.** And the pEC50?
**A.** 7.53

**Q.** Which Emax does the source give for `CNC(=O)CN1CC(Nc2ncc3c(c2F)[C@@](C)(c2cccc(Cl)c2F)CN(c2nn(C)cc2F)C3=O)C1` [compound 67, 2-(3-{[(5R)-5-(3-chloro-2-fluorophenyl)-4-fluoro-7-(4-fluoro-1-methyl-1H-pyrazol-3-yl)-5-methyl-8-oxo-5,6,7,8-tetrahydro-2,7-naphthyridin-3-yl]amino}azetidin-1-yl)-N-methylacetamide] here?
**A.** 40.1%

**Q.** And the pEC50?
**A.** 7.11

**Q.** Which results are given for `Cn1cc(F)c(N2C[C@](C)(c3cccc(Cl)c3F)c3c(cnc(NC4CN(CC(N)=O)C4)c3F)C2=O)n1` [compound 68, 2-(3-{[(5R)-5-(3-chloro-2-fluorophenyl)-4-fluoro-7-(4-fluoro-1-methyl-1H-pyrazol-3-yl)-5-methyl-8-oxo-5,6,7,8-tetrahydro-2,7-naphthyridin-3-yl]amino}azetidin-1-yl)acetamide]?
**A.** Emax: 29.6%; pEC50: 6.61

**Q.** Which Emax does the source give for `CN(CC1CC1)C(=O)CN1CC(Nc2ncc3c(c2F)[C@@](C)(c2cccc(Cl)c2F)CN(c2nn(C)cc2F)C3=O)C1` [compound 73, 2-(3-{[(5R)-5-(3-chloro-2-fluorophenyl)-4-fluoro-7-(4-fluoro-1-methyl-1H-pyrazol-3-yl)-5-methyl-8-oxo-5,6,7,8-tetrahydro-2,7-naphthyridin-3-yl]amino}azetidin-1-yl)-N-(cyclopropylmethyl)-N-methylacetamide] here?
**A.** 46.1%

**Q.** What about the pEC50 of the same molecule?
**A.** 7.34

**Q.** Which Emax does the source give for `Cn1cc(F)c(N2C[C@](C)(c3cccc(Cl)c3F)c3c(cnc(NC4CN(CC(=O)N(CC(F)(F)F)C5CC5)C4)c3F)C2=O)n1` [compound 74, 2-(3-{[(5R)-5-(3-chloro-2-fluorophenyl)-4-fluoro-7-(4-fluoro-1-methyl-1H-pyrazol-3-yl)-5-methyl-8-oxo-5,6,7,8-tetrahydro-2,7-naphthyridin-3-yl]amino}azetidin-1-yl)-N-cyclopropyl-N-(2,2,2-trifluoroethyl)acetamide] here?
**A.** 129%

**Q.** What about the pEC50 of the same molecule?
**A.** 7.40

**Q.** What does the source list for `COCCN(C(=O)CN1CC(Nc2ncc3c(c2F)[C@@](C)(c2cccc(Cl)c2F)CN(c2nn(C)cc2F)C3=O)C1)C1CC1` [compound 75, 2-(3-{[(5R)-5-(3-chloro-2-fluorophenyl)-4-fluoro-7-(4-fluoro-1-methyl-1H-pyrazol-3-yl)-5-methyl-8-oxo-5,6,7,8-tetrahydro-2,7-naphthyridin-3-yl]amino}azetidin-1-yl)-N-cyclopropyl-N-(2-methoxyethyl)acetamide]?
**A.** Emax: 134%; pEC50: 7.28

**Q.** With `Cn1cc(F)c(N2C[C@](C)(c3cccc(Cl)c3F)c3c(cnc(NC4CN(C(=O)CN[C@@H]5CCOC5)C4)c3F)C2=O)n1` [compound 76, (4R)-4-(3-chloro-2-fluorophenyl)-5-fluoro-2-(4-fluoro-1-methyl-1H-pyrazol-3-yl)-4-methyl-6-{[1-{{[(3R)-oxolan-3-yl]amino}acetyl)azetidin-3-yl]amino}-3,4-dihydro-2,7-naphthyridin-1(2H)-one] as the molecule, how does the Emax read?
**A.** 59.3%

**Q.** What about the pEC50 of the same molecule?
**A.** 7.25

**Q.** With `C[C@]1(c2cccc(Cl)c2F)CN(c2cc(F)c(CO)cc2F)C(=O)c2cnc(NC3CN(C(=O)[C@@H]4C[C@@H]4F)C3)c(F)c21` [compound 77, (4R)-4-(3-chloro-2-fluorophenyl)-2-[2,5-difluoro-4-(hydroxymethyl)phenyl]-5-fluoro-6-({1-[(1S,2S)-2-fluorocyclopropane-1-carbonyl]azetidin-3-yl}amino)-4-methyl-3,4-dihydro-2,7-naphthyridin-1(2H)-one] as the molecule, how does the Emax read?
**A.** 78.2%

**Q.** And the pEC50?
**A.** 7.42

**Q.** What does the source list for `Cn1cc(F)c(N2C[C@](C)(c3cccc(Cl)c3F)c3c(cnc(NC4CN(C(=O)[C@@H]5C[C@H]5F)C4)c3F)C2=O)n1` [compound 78, (4R)-4-(3-chloro-2-fluorophenyl)-5-fluoro-6-({1-[(1S,2R)-2-fluorocyclopropane-1-carbonyl]azetidin-3-yl}amino)-2-(4-fluoro-1-methyl-1H-pyrazol-3-yl)-4-methyl-3,4-dihydro-2,7-naphthyridin-1(2H)-one]?
**A.** Emax: 80.7%; pEC50: 7.21

**Q.** What does the source list for `CNCc1ccc(N2CC(C)(c3cccc(Cl)c3F)c3nc(NC4CN(C(=O)C5CC5F)C4)ncc3C2=O)cc1F` [compound 80, 8-(3-chloro-2-fluorophenyl)-2-({1-[(1S,2S)-2-fluorocyclopropane-1-carbonyl]azetidin-3-yl}amino)-6-{3-fluoro-4-[(methylamino)methyl]phenyl}-8-methyl-7,8-dihydropyrido[4,3-d]pyrimidin-5(6H)-one, from P11 (ENANT-2)]?
**A.** Emax: 154%; pEC50: 5.60
